Laboratory results from US12540164B2, “Peptides for treatment and prevention of nonalcoholic fatty liver disease and fibrosis” (UNIVERSITE DE STRASBOURG, priority 2017, dated 2026).
Entries after “also recorded” stand apart in the source; their conditions may differ. Ends that are not written are not given here.

How the values were obtained:
[1] = system: lysophosphatidylcholines (LPCs); experiment: Lysophosphatidylcholines (LPC) lipid content in pancreas, adipose tissue, liver and plasma; assay type: in vivo, mice; settings: 25 μg per mouse subcutaneous
From the text: (§1) For the lipid composition in the different tissues and plasma, all samples were flashed frozen at the time of sampling, immediately after sacrifice, and were sent to the lipidomic core facility of Dijon, (Plateforme de Lipidomique-uBorgogne INSERM UMR866/Labex LipSTIC).

[2] = system: FABP4; experiment: FABP4 ELISA on liver extracts; assay type: in vivo; settings: 3 months after single injection, DIO male mice
From the text: LOXL2 is the enzyme promoting the development of fibrotic lesions by favoring the polymerization of collagen and FABP4 is a protein involved in lipid metabolism whose level increases with increasing lipid deposition in the liver.
For the measurements on the liver extracts, the same kit for LOXL2 was used and for FABP4, the commercial kit used was the Elisa kit for Fatty Acid Binding Protein 4, Adipocyte (FABP4), SEB693Mu, Cloud Clone Corp.

[3] = system: ceramides; experiment: Hepatic ceramides content and profile (lipidomics); assay type: in vivo, mice; settings: 3 injections, one per week, in subcutaneous adipose tissue
From the text: ADPIF adipose tissue injection has proven to be unexpectedly liver protective relative to a specific decrease in expression levels of FATP2 in the adipose tissue and an associated profile of the FATPs and FFARs in the muscles and liver. As these changes impact circulating population of the different lipids. Ceramides are a group of biological active lipids known to be involved in NAFLD. We measured and determined the effect of ADPIF injections on the ceramides profile following 3 injections of ADPIF at a frequency of one injection per week in the subcutaneous adipose tissue.
as §1

[4] = system: LOXL2; experiment: Immunostaining of liver cryosections for LOXL2 (DIO-NASH); assay type: in vivo; settings: DIO-NASH mice, 3 months after injection in subcutaneous adipose tissue; vs untreated
Description: For immunofluorescence experiments, liver and kidneys freshly sampled were included in Optimal Cutting Temperature Compound™ (OCT™, Catalog #4583, Tissue-Tek® OCT™, Sakura® Finetek, Torrance, California, USA) and cryosections of 7 μm were cut with Cryostat Leica CM1950. Cryosections were washed with 1×PBS and fixated in 4% formaldehyde solution for 15 min (Catalog #: F555-4L, Sigma-Aldrich, Saint-Louis, Missouri, USA) and then permeabilized with 0.02% SDS-PBS for 30 seconds. Blocking solution was 5%-Bovine Serum Albumin (BSA) in PBS. Primary antibodies were diluted in blocking solution and incubated overnight and indicated secondary antibodies were diluted in PBS for 30 minutes. Nuclei were counterstained with Hoechst (Catalog #: D1306, Invitrogen, Carlsbad, California, USA). Slides were then mounted with Vectashield® Mounting Medium (Catalog #: H-1000, Vector Laboratories, Burlingame, California, USA). Images were acquired and analyzed with Zeiss Imager.Z2 microscope equipped with either Zeiss AxioVision or Zeiss ZEN 2012 software (Carl Zeiss Inc., Oberkochen, Germany). Anti-Collagen IV antibody, ab6586 from Abcam and LOXL2 antibody, GTX105085 from GeneTex were used.

[5] = system: FATP2; experiment: Expression levels of FATPs and FFARs in adipose tissue by real-time PCR after peptide injection; assay type: in vivo, mice; settings: 11 days post single injection in subcutaneous adipose tissue, GAPDH reference, n=4 per group
Description: Mice were injected with a single dose of either scramble peptide or PATAD or ADPIF. 11 days post injection, the mice were euthanized and adipose tissue was sampled for RNA extraction followed by real-time PCR.
For this study, mice were on a C57/BL6 genetic background. All animals were housed in a temperature and humidity controlled facility, with a 12 h-light/12 h-dark cycle fed during the whole phase mice will be fed with a 60% high fat diet from Research Diets (D12492), and tap water will be provided ad libitum. Mice were fed and tested regularly for glucose tolerance test for their glucose tolerance and once they were glucose intolerant they were used for treatment.
All peptides were initially dissolved in DMSO and then diluted in sterile saline solution at a concentration of 10 ng/μL. 2.5 μL of each peptide (stapled or scrambled) were mixed and then injected directly in the subcutaneous adipose tissue in each mouse.

With “VECTTREKEVLASLDKAAFLTQLHS (not fully specified (bridges)) [ADPIF, R and S carry the stapling, preferably 2-(7-octenyl)arginine and 2-(4-pentenyl)serine]” the “level of LPC 18:2” value ([1]; adipose tissue and liver) was “most prominent reduction; also recorded: mostly reduced”, the “levels of lysophosphatidylcholines (LPCs) in the tissues analyzed” value ([1]; adipose tissue, liver, plasma, euthanized 1 week after last injection) was “effective in reducing selective LPCS; also recorded: selective decrease of certain LPCs” and the “hepatic protein content of FABP4” value [2] was “more potent than PATAD; also recorded: significantly reduced”. The hepatic ceramides content [3] was “globally induces a decrease”, the “LOXL2 expression in liver (immunostaining)” value [4] was “effective in preventing the progression of fibrotic markers; also recorded: reduced” and the “FATP2 expression level in the adipose tissue” value [5] was “more active than PATAD peptide”.
